Measured values: patent US12077503B2, “Substituted cyclic amides and their use as herbicides” (FMC CORPORATION, priority 2015, dated 2024)

What was measured:
Type in all cases: in vivo
[1] = system: barnyardgrass (Echinochloa crus-galli); test: Test G Pre-Emergence Protocol; conditions: Echinochloa crus-galli, pre-emergence, 312 h, evaluated after 13 days; for pest or weed control at 15.625 g/ha: 15.625 g ai/ha, read-out: Barnyard grass damage rating (100=total damage to plant; 0=no damage to plant); for pest or weed control at 62.5 g/ha: 62.5 g ai/ha, 100=total damage to plant, 0=no damage to plant, read-out: plant damage rating, Barnyardgrass; for pest or weed control at 250 g/ha: 250 g ai/ha, read-out: Barnyardgrass damage rating (100=total damage to plant; 0=no damage to plant)
Summary of the method: (§1)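 Glasshouse pre-emergence test: soil-sown seeds, sprayed after 1 d at 15.625, 62.5 or 250 g/ha. Conditions 24/16° C day/night, 14 h light, 65% humidity, watering twice daily. Rating 13 d post-spray (100 = total damage).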

corn (Zea mays) [2] = test: Test G Pre-Emergence Protocol; conditions: Zea mays, pre-emergence, 312 h, evaluated after 13 days; for plant injury at 15.625 g/ha: 15.625 g ai/ha; for plant injury at 15.625 g/ha / plant injury at 250 g/ha: read-out: Corn damage rating (100=total damage to plant; 0=no damage to plant); for plant injury at 62.5 g/ha: 62.5 g ai/ha, 100=total damage to plant, 0=no damage to plant, read-out: plant damage rating, Corn; for plant injury at 250 g/ha: 250 g ai/ha
Summary of the method: as §1

[3] = system: giant foxtail (Setaria faberi); test: Test G Pre-Emergence Protocol; conditions: Setaria faberi, pre-emergence, 312 h, evaluated after 13 days; for pest or weed control at 15.625 g/ha: 15.625 g ai/ha; for pest or weed control at 15.625 g/ha / pest or weed control at 250 g/ha: read-out: Foxtail, Giant damage rating (100=total damage to plant; 0=no damage to plant); for pest or weed control at 62.5 g/ha: 62.5 g ai/ha, 100=total damage to plant, 0=no damage to plant, read-out: plant damage rating, Foxtail, Giant; for pest or weed control at 250 g/ha: 250 g ai/ha
Summary of the method: as §1

[4] = system: ivy-leaved morning glory (Ipomoea hederacea); test: Test G Pre-Emergence Protocol; conditions: Ipomoea, pre-emergence, 312 h, evaluated after 13 days; for pest or weed control at 15.625 g/ha: 15.625 g ai/ha, read-out: Morning-glory, Ivy-leaved damage rating (100=total damage to plant; 0=no damage to plant); for pest or weed control at 62.5 g/ha: 62.5 g ai/ha, 100=total damage to plant, 0=no damage to plant, read-out: plant damage rating, Morningglory, Ivy-leaved; for pest or weed control at 250 g/ha: 250 g ai/ha, read-out: Morningglory, Ivy-leaved damage rating (100=total damage to plant; 0=no damage to plant)
Summary of the method: as §1

[5] = system: redroot pigweed (Amaranthus retroflexus); test: Test G Pre-Emergence Protocol; conditions: Amaranthus retroflexus, pre-emergence, 312 h, evaluated after 13 days; for pest or weed control at 62.5 g/ha: 62.5 g ai/ha, 100=total damage to plant, 0=no damage to plant, read-out: plant damage rating, Pigweed, Redroot; for pest or weed control at 250 g/ha: 250 g ai/ha
Summary of the method: as §1

[6] = system: velvetleaf (Abutilon theophrasti); test: Test G Pre-Emergence Protocol; conditions: Abutilon theophrasti, pre-emergence, 312 h, evaluated after 13 days; for pest or weed control at 62.5 g/ha: 62.5 g ai/ha, 100=total damage to plant, 0=no damage to plant, read-out: plant damage rating, Velvetleaf; for pest or weed control at 250 g/ha: 250 g ai/ha
Summary of the method: as §1

[7] = system: barnyardgrass (Echinochloa crus-galli); test: Test G Post-Emergence Protocol; conditions: Echinochloa crus-galli, post-emergence, 312 h; for pest or weed control at 15.625 g/ha: 15.625 g ai/ha, evaluated after 13 days (100=total damage to plant; 0=no damage to plant), read-out: Barnyardgrass damage rating; for pest or weed control at 62.5 g/ha: 62.5 g ai/ha, read-out: Barnyardgrass damage rating (100=total damage to plant; 0=no damage to plant); for pest or weed control at 62.5 g/ha / pest or weed control at 250 g/ha: evaluated after 13 days; for pest or weed control at 250 g/ha: 250 g ai/ha, read-out: damage to plant, Barnyardgrass (100=total damage to plant; 0=no damage to plant)
Summary of the method: (§2)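 Foliar application was made 8 days after sowing, using an aqueous spray of the active in acetone/water (50:50) with 0.5% Tween 20, at doses of 15.625, 62.5 or 250 g/ha. Injury was assessed 13 days later, where 100 meant the plant was fully damaged.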

corn (Zea mays) [8] = test: Test G Post-Emergence Protocol; conditions: Zea mays, post-emergence, 312 h; for plant injury at 15.625 g/ha: 15.625 g ai/ha, evaluated after 13 days (100=total damage to plant; 0=no damage to plant), read-out: Corn damage rating; for plant injury at 62.5 g/ha: 62.5 g ai/ha, read-out: Corn damage rating (100=total damage to plant; 0=no damage to plant); for plant injury at 62.5 g/ha / plant injury at 250 g/ha: evaluated after 13 days; for plant injury at 250 g/ha: 250 g ai/ha, read-out: damage to plant, Corn (100=total damage to plant; 0=no damage to plant)
Summary of the method: as §2

[9] = system: giant foxtail (Setaria faberi); test: Test G Post-Emergence Protocol; conditions: Setaria faberi, post-emergence, 312 h; for pest or weed control at 15.625 g/ha: 15.625 g ai/ha, evaluated after 13 days (100=total damage to plant; 0=no damage to plant), read-out: Foxtail, Giant damage rating; for pest or weed control at 62.5 g/ha: 62.5 g ai/ha, read-out: Foxtail, Giant damage rating (100=total damage to plant; 0=no damage to plant); for pest or weed control at 62.5 g/ha / pest or weed control at 250 g/ha: evaluated after 13 days; for pest or weed control at 250 g/ha: 250 g ai/ha, read-out: damage to plant, Foxtail, Giant (100=total damage to plant; 0=no damage to plant)
Summary of the method: as §2

[10] = system: ivy-leaved morning glory (Ipomoea hederacea); test: Test G Post-Emergence Protocol; conditions: Ipomoea, post-emergence, 312 h; for pest or weed control at 15.625 g/ha: 15.625 g ai/ha, evaluated after 13 days (100=total damage to plant; 0=no damage to plant), read-out: Morningglory, Ivy-leaved damage rating; for pest or weed control at 62.5 g/ha: 62.5 g ai/ha, read-out: Morningglory, Ivy-leaved damage rating (100=total damage to plant; 0=no damage to plant); for pest or weed control at 62.5 g/ha / pest or weed control at 250 g/ha: evaluated after 13 days; for pest or weed control at 250 g/ha: 250 g ai/ha, read-out: damage to plant, Morningglory, Ivy-leaved (100=total damage to plant; 0=no damage to plant)
Summary of the method: as §2

[11] = system: redroot pigweed (Amaranthus retroflexus); test: Test G Post-Emergence Protocol; conditions: Amaranthus retroflexus, post-emergence, 312 h; for pest or weed control at 15.625 g/ha: 15.625 g ai/ha, evaluated after 13 days (100=total damage to plant; 0=no damage to plant), read-out: Pigweed, Redroot damage rating; for pest or weed control at 62.5 g/ha: 62.5 g ai/ha, read-out: Pigweed, Redroot damage rating (100=total damage to plant; 0=no damage to plant); for pest or weed control at 62.5 g/ha / pest or weed control at 250 g/ha: evaluated after 13 days; for pest or weed control at 250 g/ha: 250 g ai/ha, read-out: damage to plant, Pigweed, Redroot (100=total damage to plant; 0=no damage to plant)
Summary of the method: as §2

[12] = system: velvetleaf (Abutilon theophrasti); test: Test G Post-Emergence Protocol; conditions: Abutilon theophrasti, post-emergence, 312 h; for pest or weed control at 15.625 g/ha: 15.625 g ai/ha, evaluated after 13 days (100=total damage to plant; 0=no damage to plant), read-out: Velvetleaf damage rating; for pest or weed control at 62.5 g/ha: 62.5 g ai/ha, read-out: Velvetleaf damage rating (100=total damage to plant; 0=no damage to plant); for pest or weed control at 62.5 g/ha / pest or weed control at 250 g/ha: evaluated after 13 days; for pest or weed control at 250 g/ha: 250 g ai/ha, read-out: damage to plant, Velvetleaf (100=total damage to plant; 0=no damage to plant)
Summary of the method: as §2

[13] = read-out: Pigweed, Redroot damage rating (100=total damage to plant; 0=no damage to plant)
[14] = read-out: Velvetleaf damage rating (100=total damage to plant; 0=no damage to plant)

SMILES	pest or weed control at 15.625 g/ha [1] [%]	pest or weed control at 62.5 g/ha [1] [%]	pest or weed control at 250 g/ha [1] [%]	plant injury at 15.625 g/ha (corn (Zea mays) [2]) [%]	plant injury at 62.5 g/ha (corn (Zea mays) [2]) [%]	plant injury at 250 g/ha (corn (Zea mays) [2]) [%]	pest or weed control at 15.625 g/ha [3] [%]	pest or weed control at 62.5 g/ha [3] [%]	pest or weed control at 250 g/ha [3] [%]	pest or weed control at 15.625 g/ha [4] [%]	pest or weed control at 62.5 g/ha [4] [%]	pest or weed control at 250 g/ha [4] [%]	pest or weed control at 62.5 g/ha [5] [%]	pest or weed control at 250 g/ha [5, 13] [%]	pest or weed control at 62.5 g/ha [6] [%]	pest or weed control at 250 g/ha [6, 14] [%]	pest or weed control at 15.625 g/ha [7] [%]	pest or weed control at 62.5 g/ha [7] [%]	pest or weed control at 250 g/ha [7] [%]	plant injury at 15.625 g/ha (corn (Zea mays) [8]) [%]	other results
COc1ccc(OC)c([C@H]2CN(C)C(=O)[C@@H]2C(=O)Nc2ccccc2F)c1 (racemic) [Compound 1453]	20	40	90	0	0	0	40	60	90	0	0	0	0	0	0	20	0	10	10	10	pest or weed control at 15.625 g/ha ([5]; 15.625 g ai/ha, read-out: Pigweed, Redroot damage rating (100=total damage to plant; 0=no damage to plant)): 0%; plant injury at 62.5 g/ha (corn (Zea mays) [8]): 10%; plant injury at 250 g/ha (corn (Zea mays) [8]): 10%; pest or weed control at 15.625 g/ha [9]: 10%; pest or weed control at 62.5 g/ha [9]: 50%; pest or weed control at 250 g/ha [9]: 50%; pest or weed control at 15.625 g/ha [10]: 0%; pest or weed control at 62.5 g/ha [10]: 0%; pest or weed control at 250 g/ha [10]: 10%; pest or weed control at 15.625 g/ha [11]: 0%; pest or weed control at 62.5 g/ha [11]: 0%; pest or weed control at 250 g/ha [11]: 0%; pest or weed control at 15.625 g/ha [12]: 0%; pest or weed control at 62.5 g/ha [12]: 0%; pest or weed control at 250 g/ha [12]: 0%
COc1ccc([C@H]2CN(C)C(=O)[C@@H]2C(=O)Nc2ccccc2F)c(C)c1 (racemic) [Compound 1455]	30	70	90	0	0	10	30	70	90	0	0	20	0	0	30	0	0	0	20	10	pest or weed control at 15.625 g/ha ([6]; 15.625 g ai/ha, read-out: Velvetleaf damage rating (100=total damage to plant; 0=no damage to plant)): 0%; plant injury at 62.5 g/ha (corn (Zea mays) [8]): 10%; plant injury at 250 g/ha (corn (Zea mays) [8]): 20%; pest or weed control at 15.625 g/ha [9]: 10%; pest or weed control at 62.5 g/ha [9]: 10%; pest or weed control at 250 g/ha [9]: 50%; pest or weed control at 15.625 g/ha [10]: 0%; pest or weed control at 62.5 g/ha [10]: 0%; pest or weed control at 250 g/ha [10]: 20%; pest or weed control at 15.625 g/ha [11]: 0%; pest or weed control at 62.5 g/ha [11]: 0%; pest or weed control at 250 g/ha [11]: 40%; pest or weed control at 15.625 g/ha [12]: 0%; pest or weed control at 62.5 g/ha [12]: 0%; pest or weed control at 250 g/ha [12]: 10%
